This passage reports IC50 results from patent US20180318287A1, “Imidazo[4,5-c]quinolin-2-one Compounds and Their Use in Treating Cancer” (ASTRAZENECA AB, priority 2015, published 2018).

SMILES strings stand for the structures. Where two headings read alike, the source gives them in different places.

What all share (type): cell-based
Assay [1] has as its target T1, ATR kinase (Homo sapiens, UniProt Q13535).
T1 construct: endogenous in cells; host or cells: HT29 cells (ECACC #85061109)
Kind of assay: Assay b): ATR cellular potency (pChk1 Ser345 in HT29 cells after 4NQO). The method, then: ATR is a PI 3-kinase-related kinase which phosphorylates multiple substrates on serine or threonine residues in response to DNA damage during or replication blocks. Chk1, a downstream protein kinase of ATR, plays a key role in DNA damage checkpoint control. Activation of Chk1 involves phosphorylation of Ser317 and Ser345 (the latter regarded as the preferential target for phosphorylation/activation by ATR).
The following morning compound of Formula (I) in 100% DMSO were added to assay plates by acoustic dispensing. After 1 h incubation at 37° C. and 5% CO2, 40 nl of 3 mM 4NQO in 100% DMSO was added to all wells by acoustic dispensing, except minimum control wells which were left untreated with 4NQO to generate a null response control. Plates were returned to the incubator for a further 1 h. […] Then 20 μl of 0.1% Triton X100 in PBS was added and incubated for 10 minutes at r.t., to permeabalise cells. Then the plates were washed once with 50 μl/well PBS, using a Biotek EL405 plate washer.
After 2 h incubation at r.t., the plates were washed three times with 50 μl/well PBS, using a Biotek EL405 plate washer, and plates were then sealed with black plate seals until read. Plates were read using an ArrayScan VTI instrument, using an XF53 filter with 10× objective.

For assay [2], the target named is T2, mTOR (Homo sapiens, UniProt P42345).
T2 construct: phosphorylation of the Akt protein at Ser473 (AKT lies downstream of PI3Kα in the signal transduction pathway) in the MDA-MB-468 cells; endogenous in cells; host or cells: MDA-MB-468 cells (ATCC HTB 132)
Kind of assay: Assay d): mTOR cellular potency (phospho-AKT Ser473 in MDA-MB-468 cells). On the procedure: This assay was used to measure mTOR inhibition in cells. The aim of the phospho-AKT cell based mechanism of action assay using the Acumen Explorer is to identify inhibitors of either PI3Kα or mTOR-Rictor (Rapamycin insensitive companion of mTOR). This is measured by any decrease in the phosphorylation of the Akt protein at Ser473 (AKT lies downstream of PI3Kα in the signal transduction pathway) in the MDA-MB-468 cells following treatment with compound.
MDA-MB-468 cells (human breast adenocarcinoma #ATCC HTB 132) were seeded at 1500 cells/well in 40 μl of DMEM containing 10% FBS and 1% glutamine into Greiner 384 well black flat-bottomed plates. Cell plates were incubated for 18 h in a 37° C. incubator before dosing with compounds of Formula (I) in 100% DMSO using acoustic dispensing. Compounds were dosed in a 12 point concentration range into a randomised plate map. Control wells were generated either by dosing of 100% DMSO (max signal) or addition of a reference compound (a PI3K-βinhibitor) that completely eliminated the pAKT signal (min control). Plates were incubated at 37° C. for 2 h; cells were then fixed by the addition of 10 μl of a 3.7% formaldehyde solution. After 30 minutes the plates were washed with PBS using a Tecan PW384 plate washer. Wells were blocked and cells permeabilised with the addition of 40 μl of PBS containing 0.5% Tween20 and 1% Marvel™ (dried milk powder) and incubated for 60 minutes at r.t. The plates were washed with PBS containing 0.5% (v/v) Tween20 and 20 μl rabbit anti-phospho AKT Ser473 (Cell Signalling Technologies, #3787) in same PBS-Tween+1% Marvel™ was added and incubated overnight at 4° C.
Plates were washed 3 times with PBS+0.05% Tween 20 using a Tecan PW384. 20 μl of secondary antibody Alexa Fluor 488 anti-Rabbit (Molecular Probes, #A11008) diluted in PBS+0.05% Tween20 containing 1% Marvel™ was added to each well and incubated for 1 h at r.t. Plates were washed three times as before then 20 μl PBS added to each well and plates sealed with a black plate sealer.
The plates were read on an Acumen plate reader as soon as possible, measuring green fluorescence after excitation with 488 nm laser. Using this system IC50 values were generated and quality of plates was determined by control wells. Reference compounds were run each time to monitor assay performance.

Assay [3] has as its target T3, ATM kinase (Homo sapiens, UniProt Q13315).
T3 construct: endogenous in cells; host or cells: HT29 cells (ECACC #85061109)
The assay can be described thus: Assay a): ATM cellular potency (pATM Ser1981 in irradiated HT29 cells). On the procedure: Most ATM molecules in the cell are rapidly phosphorylated on this site after doses of radiation as low as 0.5 Gy, and binding of a phosphospecific antibody is detectable after the introduction of only a few DNA double-strand breaks in the cell.
The rationale of the p ATM assay is to identify inhibitors of ATM in cells. HT29 cells are incubated with test compounds for 1 hr prior to X-ray-irradiation. 1 h later the cells are fixed and stained for p ATM (Ser1981). The fluorescence is read on the arrayscan imaging platform.
The following morning compounds of Formula (I) in 100% DMSO were added to assay plates by acoustic dispensing. After 1 h incubation at 37° C. and 5% CO2, plates (up to 6 at a time) were irradiated using the X-RAD 320 instrument (PXi) with equivalent to ˜600cGy. Plates were returned to the incubator for a further 1 h. […] Then 20 μl of 0.1% Triton X100 in PBS was added and incubated for 20 minutes at r.t., to permeabalise cells. Then the plates were washed once with […] PBS, using a Biotek EL405 plate washer.
After 1 h incubation at r.t., the plates were washed three times with 50 μl/well PBS, using a Biotek EL405 plate washer, and plates were sealed and kept in PBS at 4° C. until read. Plates were read using an ArrayScan VTI instrument, using an XF53 filter with 10× objective.

Setting [4] is: HT29 cells, 4NQO, pChk1 Ser345; Table 2; read-out: Assay b) ATR Cell IC50.
The mark [5] stands for this setting: MDA-MB-468 cells, phospho-AKT Ser473, 2 h; Table 2; read-out: Assay d) mTOR Cell IC50.
Where [6] appears, read: HT29 cells, X-ray irradiation, pATM Ser1981; Table 2; read-out: Assay a) ATM Cell IC50.

T1 sequence (Q13535 whole entry): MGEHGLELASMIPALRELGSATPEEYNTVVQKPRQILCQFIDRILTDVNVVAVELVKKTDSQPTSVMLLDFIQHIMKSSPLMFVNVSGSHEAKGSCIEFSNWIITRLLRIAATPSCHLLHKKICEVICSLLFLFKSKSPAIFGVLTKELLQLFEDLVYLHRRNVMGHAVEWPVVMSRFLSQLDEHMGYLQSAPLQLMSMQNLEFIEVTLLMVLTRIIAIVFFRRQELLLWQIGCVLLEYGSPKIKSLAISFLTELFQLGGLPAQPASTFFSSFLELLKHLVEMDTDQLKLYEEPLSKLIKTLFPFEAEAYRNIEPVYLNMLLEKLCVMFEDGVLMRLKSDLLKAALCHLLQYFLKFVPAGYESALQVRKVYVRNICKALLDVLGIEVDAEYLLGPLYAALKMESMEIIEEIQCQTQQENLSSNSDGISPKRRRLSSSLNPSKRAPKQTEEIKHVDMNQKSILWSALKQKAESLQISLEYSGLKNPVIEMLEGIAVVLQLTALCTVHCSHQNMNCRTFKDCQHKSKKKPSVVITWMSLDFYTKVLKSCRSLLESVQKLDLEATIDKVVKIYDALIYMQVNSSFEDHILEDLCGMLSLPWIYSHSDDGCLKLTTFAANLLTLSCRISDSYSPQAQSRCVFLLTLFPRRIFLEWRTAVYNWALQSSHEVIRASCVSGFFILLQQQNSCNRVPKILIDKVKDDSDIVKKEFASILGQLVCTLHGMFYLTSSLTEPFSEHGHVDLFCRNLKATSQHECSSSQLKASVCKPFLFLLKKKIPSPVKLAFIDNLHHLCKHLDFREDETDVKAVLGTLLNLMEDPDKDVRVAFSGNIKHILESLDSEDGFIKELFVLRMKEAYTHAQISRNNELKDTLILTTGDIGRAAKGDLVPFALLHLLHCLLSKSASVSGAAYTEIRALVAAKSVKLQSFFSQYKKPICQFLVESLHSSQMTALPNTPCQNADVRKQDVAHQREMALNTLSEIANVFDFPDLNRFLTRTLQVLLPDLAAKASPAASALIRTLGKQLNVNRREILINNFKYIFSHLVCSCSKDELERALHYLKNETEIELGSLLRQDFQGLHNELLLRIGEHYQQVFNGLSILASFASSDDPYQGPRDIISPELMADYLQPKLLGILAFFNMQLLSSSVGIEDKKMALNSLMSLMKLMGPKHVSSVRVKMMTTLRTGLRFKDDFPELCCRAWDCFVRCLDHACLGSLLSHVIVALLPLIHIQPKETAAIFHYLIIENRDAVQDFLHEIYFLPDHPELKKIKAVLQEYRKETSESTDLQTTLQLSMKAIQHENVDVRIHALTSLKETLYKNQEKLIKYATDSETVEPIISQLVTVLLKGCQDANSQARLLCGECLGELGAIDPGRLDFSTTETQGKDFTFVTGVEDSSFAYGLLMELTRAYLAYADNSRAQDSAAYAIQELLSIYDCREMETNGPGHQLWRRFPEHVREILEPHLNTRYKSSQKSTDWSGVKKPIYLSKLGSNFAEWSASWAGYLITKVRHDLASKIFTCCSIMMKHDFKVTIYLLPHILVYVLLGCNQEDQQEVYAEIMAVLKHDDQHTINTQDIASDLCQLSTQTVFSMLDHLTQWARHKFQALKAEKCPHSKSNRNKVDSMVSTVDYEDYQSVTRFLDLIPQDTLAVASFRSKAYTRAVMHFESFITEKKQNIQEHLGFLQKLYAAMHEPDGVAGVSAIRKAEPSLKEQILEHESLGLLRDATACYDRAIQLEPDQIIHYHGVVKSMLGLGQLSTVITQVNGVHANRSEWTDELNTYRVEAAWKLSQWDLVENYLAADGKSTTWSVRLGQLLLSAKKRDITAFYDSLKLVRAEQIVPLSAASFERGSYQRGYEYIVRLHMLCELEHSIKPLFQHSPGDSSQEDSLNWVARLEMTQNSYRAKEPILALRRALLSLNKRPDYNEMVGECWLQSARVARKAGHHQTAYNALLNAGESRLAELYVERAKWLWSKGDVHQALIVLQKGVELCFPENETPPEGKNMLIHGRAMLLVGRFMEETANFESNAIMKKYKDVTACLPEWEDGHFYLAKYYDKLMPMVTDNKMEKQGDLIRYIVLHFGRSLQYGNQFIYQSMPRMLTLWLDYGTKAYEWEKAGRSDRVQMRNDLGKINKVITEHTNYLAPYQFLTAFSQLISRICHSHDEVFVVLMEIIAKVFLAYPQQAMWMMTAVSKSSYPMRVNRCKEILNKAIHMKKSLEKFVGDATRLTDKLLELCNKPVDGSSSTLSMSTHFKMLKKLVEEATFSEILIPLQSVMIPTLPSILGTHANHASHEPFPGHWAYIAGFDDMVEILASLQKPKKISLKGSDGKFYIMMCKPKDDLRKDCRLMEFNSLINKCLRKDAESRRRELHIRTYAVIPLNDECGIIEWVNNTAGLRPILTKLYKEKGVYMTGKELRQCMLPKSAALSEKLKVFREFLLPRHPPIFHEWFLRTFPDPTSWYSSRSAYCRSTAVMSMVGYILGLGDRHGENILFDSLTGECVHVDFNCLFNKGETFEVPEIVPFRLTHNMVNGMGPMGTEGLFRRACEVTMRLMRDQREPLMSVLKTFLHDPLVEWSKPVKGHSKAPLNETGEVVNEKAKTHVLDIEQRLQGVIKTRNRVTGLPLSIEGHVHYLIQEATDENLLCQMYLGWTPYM
T1 sequence (Q8WXE1 whole entry partner): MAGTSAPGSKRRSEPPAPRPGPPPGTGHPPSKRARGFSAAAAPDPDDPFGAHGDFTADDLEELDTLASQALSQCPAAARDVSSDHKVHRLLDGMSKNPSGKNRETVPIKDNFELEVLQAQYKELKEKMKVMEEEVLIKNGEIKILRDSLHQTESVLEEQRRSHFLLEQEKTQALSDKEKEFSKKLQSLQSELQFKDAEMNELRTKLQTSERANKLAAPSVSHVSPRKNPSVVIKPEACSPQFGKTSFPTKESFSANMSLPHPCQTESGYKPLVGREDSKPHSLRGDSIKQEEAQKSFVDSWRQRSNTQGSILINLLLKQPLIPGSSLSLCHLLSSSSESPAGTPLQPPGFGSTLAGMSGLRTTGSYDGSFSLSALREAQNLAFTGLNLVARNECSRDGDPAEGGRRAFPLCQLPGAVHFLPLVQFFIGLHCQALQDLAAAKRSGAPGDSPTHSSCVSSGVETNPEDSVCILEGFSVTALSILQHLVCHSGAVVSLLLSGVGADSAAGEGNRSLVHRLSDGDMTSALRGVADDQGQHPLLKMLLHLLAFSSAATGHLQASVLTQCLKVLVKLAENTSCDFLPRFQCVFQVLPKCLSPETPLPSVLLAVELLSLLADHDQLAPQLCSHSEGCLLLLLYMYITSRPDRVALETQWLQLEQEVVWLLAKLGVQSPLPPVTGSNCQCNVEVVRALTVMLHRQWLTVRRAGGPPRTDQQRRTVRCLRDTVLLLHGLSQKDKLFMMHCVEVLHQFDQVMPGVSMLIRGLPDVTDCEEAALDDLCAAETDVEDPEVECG

On to `CO[C@@H]1CCC[C@H](n2c(=O)n(C)c3cnc4ccc(-c5ccc(OCCCN(C)C)cc5)cc4c32)C1` (relative stereo) [Example 33, 8-[4-[3-(dimethylamino)propoxy]phenyl]-1-[cis-3-methoxycyclohexyl]-3-methyl-imidazo[4,5-c]quinolin-2-one], for which the IC50 (commonly the concentration that gives 50% inhibition) in assay [1] (setting [4]) came out at 28 µM; in assay [2] (setting [5]), 1.23 µM; in assay [3] (setting [6]) it was 2.3 nM.

For the molecule `CO[C@H]1C[C@@H](n2c(=O)n(C)c3cnc4ccc(-c5ccc(OCCCN6CCCCC6)cc5)cc4c32)C1` [Example 43, 1-(cis-3-methoxycyclobutyl)-3-methyl-8-[4-[3-(1-piperidyl)propoxy]phenyl]imidazo[4,5-c]quinolin-2-one], the IC50 in assay [1] (setting [4]) was more than 30 µM; in assay [2] (setting [5]) it was 3.63 µM; in assay [3] (setting [6]), 0.254 nM.

Consider `CN(C)CCOc1ccc(-c2cc3c(cc2F)ncc2c3n(C3CCOCC3)c(=O)n2C)cc1` [Example 56, 8-[4-[2-(Dimethylamino)ethoxy]phenyl]-7-fluoro-3-methyl-1-tetrahydropyran-4-yl-imidazo[4,5-c]quinolin-2-one], for which the figures for the IC50 in assay [1] (setting [4]), in assay [2] (setting [5]) and in assay [3] (setting [6]) were 9.85 µM, 29.2 µM and 53.1 nM, respectively.

`CN(C)CCCOc1ccc(-c2ccc3ncc4c(c3c2)n(C2CCOCC2)c(=O)n4C)cc1` [Example 44, 8-[4-[3-(dimethylamino)propoxy]phenyl]-3-methyl-1-tetrahydropyran-4-yl-imidazo[4,5-c]quinolin-2-one]: the IC50 was more than 21.7 µM in assay [1] (setting [4]), 6.99 µM in assay [2] (setting [5]) and 0.364 nM in assay [3] (setting [6]).

With `CN(C)CCOc1ccc(-c2ccc3ncc4c(c3c2)n([C@@H]2CCCOC2)c(=O)n4C)cc1` [Example 48, 8-[4-[2-(dimethylamino)ethoxy]phenyl]-3-methyl-1-[(3R)-tetrahydropyran-3-yl]imidazo[4,5-c]quinolin-2-one], the results for the IC50 in assay [1] (setting [4]), in assay [2] (setting [5]) and in assay [3] (setting [6]) were more than 26.8 µM, 1.78 µM and 24.7 nM, respectively.

For the molecule `CO[C@H]1C[C@@H](n2c(=O)n(C)c3cnc4ccc(-c5ccc(OCCN(C)C)cc5)cc4c32)C1` [Example 55, 8-[4-[2-(dimethylamino)ethoxy]phenyl]-1-(3-(cis)methoxycyclobutyl)-3-methyl-imidazo[4,5-c]quinolin-2-one], the IC50 in assay [1] (setting [4]) is more than 30 µM; in assay [2] (setting [5]), 4.44 µM; in assay [3] (setting [6]) it was 11.3 nM.

As for `CO[C@H]1C[C@@H](n2c(=O)n(C)c3cnc4ccc(-c5ccc(OCCCN(C)C)cc5)cc4c32)C1` [Example 11, 8-[4-[3-(dimethylamino)propoxy]phenyl]-1-(cis-3-methoxycyclobutyl)-3-methyl-imidazo[4,5-c]quinolin-2-one], the IC50 in assay [1] (setting [4]) is more than 30 µM; in assay [2] (setting [5]), 6.36 µM; in assay [3] (setting [6]), 0.647 nM.

Consider `Cn1c(=O)n(C2CCOCC2)c2c3cc(-c4cnn(CCCO)c4)ccc3ncc21` [CN102399218A Compound 60, reference compound], for which the IC50 in assay [1] (HT29 cells, 4NQO, pChk1 Ser345; Table 3 comparative data; read-out: Assay b) ATR Cell IC50) is more than 0.0771 µM; in assay [2] (MDA-MB-468 cells, phospho-AKT Ser473, 2 h; Table 3 comparative data; read-out: Assay d) mTOR Cell IC50) it was 2.31 µM; in assay [3] (HT29 cells, X-ray irradiation, pATM Ser1981; Table 3 comparative data; read-out: Assay a) ATM Cell IC50), 1760 nM.

As to `CO[C@H]1C[C@@H](n2c(=O)n(C)c3cnc4ccc(-c5ccc(OCCN6CCCC6)cc5)cc4c32)C1` [Example 49, 1-(3-(cis)methoxycyclobutyl)-3-methyl-8-[4-(2-pyrrolidin-1-ylethoxy)phenyl]imidazo[4,5-c]quinolin-2-one], the values for the concentration for half-maximal inhibition (IC50) in assay [1] (setting [4]), in assay [2] (setting [5]) and in assay [3] (setting [6]) were more than 30 µM, not below 30 µM and 36.1 nM, respectively.

For `CO[C@@H]1CC[C@@H](n2c(=O)n(C)c3cnc4cc(F)c(-c5ccc(OCCCN6CCC6)cc5)cc4c32)C1` (single isomer, unassigned) [Example 24, 8-[4-[3-(azetidin-1-yl)propoxy]phenyl]-7-fluoro-1-[trans-3-methoxycyclopentyl]-3-methyl-imidazo[4,5-c]quinolin-2-one], the results for the IC50 in assay [1] (setting [4]), in assay [2] (setting [5]) and in assay [3] (setting [6]) were more than 24.6 µM, 5.91 µM and 0.917 nM, respectively.

In the case of `CO[C@H]1CC[C@H](n2c(=O)n(C)c3cnc4ccc(-c5ccc(OCCCN6CCCC6)cc5)cc4c32)C1` (single isomer, unassigned) [Example 19, 1-[trans-3-methoxycyclopentyl]-3-methyl-8-[4-(3-pyrrolidin-1-ylpropoxy)phenyl]imidazo[4,5-c]quinolin-2-one], the IC50 in assay [1] (setting [4]) came out at 18 µM; in assay [2] (setting [5]) it was 0.634 µM; in assay [3] (setting [6]) it was 0.29 nM.

As for `CO[C@H]1CC[C@H](n2c(=O)n(C)c3cnc4ccc(-c5ccc(OCCCN(C)C)cc5)cc4c32)C1` [Example 6, 8-[4-[3-(Dimethylamino)propoxy]phenyl]-1-[(1S,3S)-3-methoxycyclopentyl]-3-methyl-imidazo[4,5-c]quinolin-2-one], the concentration for half-maximal inhibition (IC50) in assay [2] (setting [5]) worked out at 0.781 µM.

As for `CO[C@@H]1CC[C@H](n2c(=O)n(C)c3cnc4ccc(-c5ccc(OCCCN(C)C)cc5)cc4c32)C1` (single isomer, unassigned) [Example 34, 8-[4-[3-(dimethylamino)propoxy]phenyl]-1-[cis-3-methoxycyclopentyl]-3-methyl-imidazo[4,5-c]quinolin-2-one], the half-inhibitory concentration (IC50) in assay [2] (setting [5]) is 4.66 µM.

`Cn1c(=O)n(C2CCOCC2)c2c3cc(-c4ccc(OCCCN5CCCCC5)cc4)ccc3ncc21` [Example 18, 3-methyl-8-[4-[3-(1-piperidyl)propoxy]phenyl]-1-tetrahydropyran-4-yl-imidazo[4,5-c]quinolin-2-one]: the IC50 in assay [1] (setting [4]) was more than 17.8 µM; in assay [2] (setting [5]), 2.65 µM.

For `CO[C@@H]1CCC[C@H](n2c(=O)n(C)c3cnc4ccc(-c5ccc(OCCCN6CCCC6)cc5)cc4c32)C1` (relative stereo) [Example 39, 1-[cis-3-methoxycyclohexyl]-3-methyl-8-[4-(3-pyrrolidin-1-ylpropoxy)phenyl]imidazo[4,5-c]quinolin-2-one], the IC50 in assay [2] (setting [5]) stood at 0.899 µM.
